# Measured values taken from article PMC10746543, “Design principles for cyclin K molecular glue degraders” (Nature Chemical Biology, 2023).
# “And” between values parts separate entries of the source, which are not always exact repeats. Equal entries are not always repeated. Where two headings read alike, the source gives them in different places.
# Assays:
# [1] = test system: cyclin K–eGFP degradation reporter; test: Cyclin K reporter stability analysis (dual-color cyclin K–eGFP reporter); type: cell-based, human; details: for reporter assay signal (normalized): replicates
# Procedure, shortened: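 First, reporter-bearing HEK293T–Cas9 cells are plated at 1 × 10^6 ml^−1. Next, drug or vehicle is added for 5 h. Finally, geometric-mean eGFP and mCherry signals of round, mCherry-positive cells are measured cytometrically, and their ratio is referenced to the DMSO average.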
# HEK293T cells = test: Drug sensitivity assay (CellTiter-Glo viability) with or without MLN4924 pretreatment; type: cell-based, human; details: for EC50: Homo sapiens, HEK-293T; for Toxicity rescue: MLN4924-mediated cytotoxicity rescue, 10 µM used where n.d.
# Procedure, shortened: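 Luminescent ATP read-out (CellTiter-Glo) after 3 days of drug exposure, normalised to DMSO controls. Cells were HEK293T–Cas9, pretreated with 100 nM MLN4924 or DMSO for 2 h before drug dispensing.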
# CDK9–cyclin T = target: T1, CDK9–cyclin T (Homo sapiens, UniProt P50750); test: Lanthascreen kinase binding assay, CDK9; details: for Lanthascreen TR-FRET signal (raw ratio), sheet CDK9: duplicates
# T1 construct: purchased Thermo Fisher
# T1 sequence (P50750 whole entry): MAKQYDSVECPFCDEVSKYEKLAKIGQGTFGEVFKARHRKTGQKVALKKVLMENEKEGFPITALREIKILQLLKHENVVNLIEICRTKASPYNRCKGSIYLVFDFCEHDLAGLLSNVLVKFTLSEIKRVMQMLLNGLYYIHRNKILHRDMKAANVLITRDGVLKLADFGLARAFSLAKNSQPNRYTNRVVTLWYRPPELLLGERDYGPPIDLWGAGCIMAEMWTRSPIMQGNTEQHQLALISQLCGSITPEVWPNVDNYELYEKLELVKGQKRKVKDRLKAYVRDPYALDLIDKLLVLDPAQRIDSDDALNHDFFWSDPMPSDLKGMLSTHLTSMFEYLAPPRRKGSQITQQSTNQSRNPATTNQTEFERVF
# T1 sequence (O60563 whole entry partner): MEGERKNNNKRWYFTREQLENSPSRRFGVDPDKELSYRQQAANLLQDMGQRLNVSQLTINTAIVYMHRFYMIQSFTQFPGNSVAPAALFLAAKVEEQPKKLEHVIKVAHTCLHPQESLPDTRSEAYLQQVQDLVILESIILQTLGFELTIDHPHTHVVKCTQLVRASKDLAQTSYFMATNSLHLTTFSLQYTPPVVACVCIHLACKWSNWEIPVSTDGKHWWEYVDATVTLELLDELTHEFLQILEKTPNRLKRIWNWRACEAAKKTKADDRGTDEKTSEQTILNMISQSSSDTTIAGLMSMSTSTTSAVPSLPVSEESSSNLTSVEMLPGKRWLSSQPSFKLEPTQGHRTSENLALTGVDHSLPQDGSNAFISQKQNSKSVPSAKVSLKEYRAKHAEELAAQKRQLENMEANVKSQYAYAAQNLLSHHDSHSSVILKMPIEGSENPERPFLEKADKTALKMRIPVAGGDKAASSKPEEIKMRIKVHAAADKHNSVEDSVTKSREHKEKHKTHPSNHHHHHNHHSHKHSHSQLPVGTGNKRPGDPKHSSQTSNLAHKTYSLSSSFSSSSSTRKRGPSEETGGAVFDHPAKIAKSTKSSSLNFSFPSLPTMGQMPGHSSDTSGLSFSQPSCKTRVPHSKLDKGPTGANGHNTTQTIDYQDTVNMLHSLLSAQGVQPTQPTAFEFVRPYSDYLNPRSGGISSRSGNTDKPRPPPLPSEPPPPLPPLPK
# Description: Lanthascreen experiments were performed using commercially available reagents (Thermo Fisher) and according to the manufacturer’s instructions.
# cyclin K = test: Label-free quantitative mass spectrometry in MDA-MB-231 cells, cyclin K; type: cell-based, human; details: for CCNK peptide count (DMSO-normalised): normalised to DMSO = 1, replicate values
# Description: MDA-MB-231 cells were treated with DMSO or a cyclin K degrader compound at 1 µM for 5 h. Cells were collected by centrifugation and washed with phosphate-buffered saline before snap freezing in liquid nitrogen. Cells were lysed by addition of lysis buffer (8 M urea, 50 mM NaCl, 50 mM 4-(2-hydroxyethyl)-1-piperazineethanesulfonic acid (EPPS) pH 8.5, and protease and phosphatase inhibitors) and homogenization by bead beating (BioSpec) for three repeats of 30 s at 2,400 rpm. Bradford assay was used to determine the final protein concentration in the clarified cell lysate. Then 50 µg of protein for each sample was reduced, alkylated and precipitated using methanol/chloroform as previously described, and the resulting washed precipitated protein was allowed to air dry. Precipitated protein was resuspended in 4 M urea, 50 mM HEPES pH 7.4, followed by dilution to 1 M urea with the addition of 200 mM EPPS, pH 8. Proteins were first digested with LysC (1:50; enzyme:protein) for 12 h at room temperature. The LysC digestion was diluted to 0.5 M urea with 200 mM EPPS pH 8 followed by digestion with trypsin (1:50; enzyme:protein) for 6 h at 37 °C. Sample digests were acidified with formic acid to a pH of 2–3 before desalting using C18 solid phase extraction plates (SOLA, Thermo Fisher Scientific). Desalted peptides were dried in a vacuum-centrifuged and reconstituted in 0.1% formic acid for liquid chromatography–mass spectrometry analysis.
# Data were collected using a TimsTOF Pro2 (Bruker Daltonics) coupled to a nanoElute LC pump (Bruker Daltonics) via a CaptiveSpray nano-electrospray source. Peptides were separated on a reversed-phase C18 column (25 cm × 75 µm inner diameter, […], IonOpticks) containing an integrated captive spray emitter. Peptides were separated using a 50 min gradient of 2–30% buffer B (acetonitrile in 0.1% formic acid) with a flow rate of 250 nl min^−1 and column temperature maintained at 50 °C.
# Data-dependent acquisition (DDA) was performed in Parallel Accumulation-Serial Fragmentation (PASEF) mode to determine effective ion mobility windows for downstream diaPASEF data collection. The ddaPASEF parameters included: 100% duty cycle using accumulation and ramp times of 50 ms each, one Trapped Ion Mobility Spectrometry(TIMS)-MS scan and ten PASEF ramps per acquisition cycle. The TIMS-MS survey scan was acquired between 100 m/z and 1,700 m/z and 1/K0 of 0.7–1.3 V s cm^−2. Precursors with one to five charges were selected, and those that reached an intensity threshold of 20,000 arbitrary units were actively excluded for 0.4 min. The quadrupole isolation width was set to 2 m/z for m/z < 700 and 3 m/z for m/z > 800, with the m/z between 700 m/z and 800 m/z being interpolated linearly. […] To perform diaPASEF, the precursor distribution in the DDA m/z-ion mobility plane was used to design an acquisition scheme for data-independent acquisition (DIA) data collection that included two windows in each 50 ms diaPASEF scan. Data were acquired using 16 of these 25 Da precursor double window scans (creating 32 windows) that covered the diagonal scan line for doubly and triply charged precursors, with singly charged precursors able to be excluded by their position in the m/z-ion mobility plane. These precursor isolation windows were defined between 400 m/z and 1,200 m/z and 1/K0 of 0.7–1.3 V s cm^−2.
# DirectDIA mode includes first extracting the DIA data into a collection of MS2 spectra which are searched using Spectronaut’s Pulsar search engine. The search results are then used to generate a spectral library which is then employed for the targeted analysis of the DIA data. MS/MS spectra were searched against a Swissprot human database (January 2021). Database search criteria largely followed the default settings for directDIA including: tryptic with two missed cleavages, fixed carbomidomethylation of cysteine, and variable oxidation of methionine and acetylation of protein N-termini and precursor Q-value (FDR) cut-off of 0.01. […]
# [2] = source data sheet correlations, read-out: DC50
# [3] = Supplementary Table 2, HEK293T viability, 72 h, compound alone, read-out: Cellular assays EC50
# [4] = Supplementary Table 2, read-out: Lanthascreen IC50 [nM] CDK9
# [5] = individual replicates, sheet EDF7
# [6] = label-free quantitative MS, replicate values
compound,measurement,setting,value
Cc1cccc(Nc2nc(CC(=O)Nc3ncc(C)s3)cs2)n1 [HQ461],DC50,[1]; [2],493 nM
same,EC50,HEK293T cells; [3],1300 nM
same,Toxicity rescue,HEK293T cells; Supplementary Table 2,159%
same,IC50,"CDK9–cyclin T; Lanthascreen, read-out: CDK9 inhibition",> 10000 nM
same,IC50,CDK9–cyclin T; [4],> 10000 nM
same,"Lanthascreen TR-FRET signal (raw ratio), sheet CDK9","CDK9–cyclin T; compound 0.038147 nM, second titration set (r13)",0.01409 and 0.01416
same,"Lanthascreen TR-FRET signal (raw ratio), sheet CDK9","CDK9–cyclin T; compound 0.152588 nM, second titration set (r13)",0.01468 and 0.01413
same,"Lanthascreen TR-FRET signal (raw ratio), sheet CDK9","CDK9–cyclin T; compound 0.610352 nM, second titration set (r13)",0.01464 and 0.01471
same,"Lanthascreen TR-FRET signal (raw ratio), sheet CDK9","CDK9–cyclin T; compound 1.02544 nM, first titration set (r1)",0.013 and 0.01376
same,"Lanthascreen TR-FRET signal (raw ratio), sheet CDK9","CDK9–cyclin T; compound 3.15521 nM, first titration set (r1)",0.01501 and 0.01445
same,"Lanthascreen TR-FRET signal (raw ratio), sheet CDK9","CDK9–cyclin T; compound 9.46563 nM, first titration set (r1)",0.01436 and 0.01453
same,"Lanthascreen TR-FRET signal (raw ratio), sheet CDK9","CDK9–cyclin T; compound 9.76563 nM, second titration set (r13)",0.01408 and 0.01448
same,"Lanthascreen TR-FRET signal (raw ratio), sheet CDK9","CDK9–cyclin T; compound 31.5521 nM, first titration set (r1)",0.01309 and 0.01275
same,"Lanthascreen TR-FRET signal (raw ratio), sheet CDK9","CDK9–cyclin T; compound 39.0625 nM, second titration set (r13)",0.01393 and 0.01389
same,"Lanthascreen TR-FRET signal (raw ratio), sheet CDK9","CDK9–cyclin T; compound 99.3891 nM, first titration set (r1)",0.01397 and 0.01502
same,"Lanthascreen TR-FRET signal (raw ratio), sheet CDK9","CDK9–cyclin T; compound 156.25 nM, second titration set (r13)",0.01402 and 0.0137
same,"Lanthascreen TR-FRET signal (raw ratio), sheet CDK9","CDK9–cyclin T; compound 315.521 nM, first titration set (r1)",0.01247 and 0.01162
same,"Lanthascreen TR-FRET signal (raw ratio), sheet CDK9","CDK9–cyclin T; compound 625 nM, second titration set (r13)",0.01303 and 0.01336
same,"Lanthascreen TR-FRET signal (raw ratio), sheet CDK9","CDK9–cyclin T; compound 2500 nM, second titration set (r13)",0.01244 and 0.01203
same,"Lanthascreen TR-FRET signal (raw ratio), sheet CDK9","CDK9–cyclin T; compound 3155.21 nM, first titration set (r1)",0.007103 and 0.007563
same,"Lanthascreen TR-FRET signal (raw ratio), sheet CDK9","CDK9–cyclin T; compound 10000 nM, second titration set (r13)",0.01094 and 0.01086
same,"Lanthascreen TR-FRET signal (raw ratio), sheet CDK9","CDK9–cyclin T; compound 10002 nM, first titration set (r1)",0.01268 and 0.01049
same,cyclin K abundance (label-free MS),cyclin K; [5],622.336 and 691.814
same,cyclin K abundance (label-free MS),cyclin K; [6],622.336 and 691.814
same,CCNK peptide count (DMSO-normalised),cyclin K,0.34 and 0.3848
same,average CCNK peptide count,cyclin K; sheet EDF7,657.075
"CCC(CO)Nc1nc(NCc2ccc(-c3ccccn3)cc2)c2ncn(C(C)C)c2n1 (centres unmarked) [CR8, reference compound]",reporter assay signal (normalized),[1]; 2 nM,0.8972 and 0.9042
same,reporter assay signal (normalized),[1]; 3 nM,0.9215 and 0.8933
same,reporter assay signal (normalized),[1]; 4.5 nM,0.9042 and 0.8823
same,reporter assay signal (normalized),[1]; 7.68 nM,0.8744 and 0.8637
same,reporter assay signal (normalized),[1]; 22.8 nM,0.7879 and 0.7853
same,reporter assay signal (normalized),[1]; 34.2 nM,0.7383 and 0.7347
same,reporter assay signal (normalized),[1]; 51.3 nM,0.6912 and 0.706
same,reporter assay signal (normalized),[1]; 77 nM,0.6707 and 0.6773
same,reporter assay signal (normalized),[1]; 260 nM,0.5992 and 0.6647
same,reporter assay signal (normalized),[1]; 390 nM,0.6455 and 0.6368
same,reporter assay signal (normalized),[1]; 585 nM,0.6031 and 0.6411
same,reporter assay signal (normalized),[1]; 877 nM,0.5764 and 0.6073
same,reporter assay signal (normalized),[1]; 1970 nM,0.6031 and 0.6571
same,reporter assay signal (normalized),[1]; 2960 nM,0.6526 and 0.6453
same,reporter assay signal (normalized),[1]; 4440 nM,0.6125 and 0.6655
same,reporter assay signal (normalized),[1]; 6670 nM,0.6345 and 0.6267
same,reporter assay signal (normalized),[1]; 10000 nM,0.6031 and 0.6495
same,"cyclin K reporter degradation, result in words",[1]; HEK293T,potent degraders
same,DC50,"[1]; Supplementary Fig. 4, HEK293T cycKeGFP reporter, 5h, n=2, read-out: DC50 printed on reporter plot",15 nM
same,DC50,[1]; [2],24 nM
same,viability assay signal (normalized),"HEK293T cells; 2 nM, + MLN4924",1.107 and 1.008
same,viability assay signal (normalized),"HEK293T cells; 2 nM, without MLN4924",1.041 and 1.037
same,viability assay signal (normalized),"HEK293T cells; 4.69 nM, + MLN4924",1.279 and 1.055
same,viability assay signal (normalized),"HEK293T cells; 4.69 nM, without MLN4924",1.03 and 1.007
same,viability assay signal (normalized),"HEK293T cells; 11 nM, + MLN4924",1.009 and 1.091
same,viability assay signal (normalized),"HEK293T cells; 11 nM, without MLN4924",1.0171 and 1.083
same,viability assay signal (normalized),"HEK293T cells; 25.7 nM, + MLN4924",1.13 and 1.18
same,viability assay signal (normalized),"HEK293T cells; 25.7 nM, without MLN4924",0.9174 and 1.057
same,viability assay signal (normalized),"HEK293T cells; 141 nM, + MLN4924",1.076 and 1.102
same,viability assay signal (normalized),"HEK293T cells; 141 nM, without MLN4924",0.4857 and 0.5122
same,viability assay signal (normalized),"HEK293T cells; 331 nM, + MLN4924",0.8705 and 0.873
same,viability assay signal (normalized),"HEK293T cells; 331 nM, without MLN4924",0.3951 and 0.3542
same,viability assay signal (normalized),"HEK293T cells; 4270 nM, + MLN4924",0.4449 and 0.4383
same,viability assay signal (normalized),"HEK293T cells; 4270 nM, without MLN4924",0.4332 and 0.4197
same,viability assay signal (normalized),"HEK293T cells; 10000 nM, + MLN4924",0.4134 and 0.5002
same,viability assay signal (normalized),"HEK293T cells; 10000 nM, without MLN4924",0.424 and 0.4316
same,EC50,"HEK293T cells; Supplementary Fig. 5, HEK293T, CellTiter Glo, 72h, pre-treatment with 100 nM MLN4924, read-out: Viability EC50, with MLN4924",519 nM
same,EC50,"HEK293T cells; Supplementary Fig. 5, HEK293T, CellTiter Glo, 72h, read-out: Viability EC50, no MLN4924",78 nM
same,EC50,HEK293T cells; [3],159 nM
same,Toxicity rescue,HEK293T cells; Supplementary Table 2,342%
same,IC50,CDK9–cyclin T; [4],44 nM
same,cyclin K abundance (label-free MS),cyclin K; [5],122.337 and 71.6906
same,cyclin K abundance (label-free MS),cyclin K; [6],122.337 and 71.6906
same,CCNK peptide count (DMSO-normalised),cyclin K,0.06684 and 0.03988
same,average CCNK peptide count,cyclin K; sheet EDF7,97.0136
